Source: patent publication US10294202B2, “Pyrrolidinones as herbicides” (FMC Corporation, priority 2013, dated 2019)

Tests used:
[1] = system: giant foxtail; experiment: Test A pre-/postemergence herbicide test; format: in vivo, Setaria faberii; details: for Foxtail, Giant plant response rating: Preemergence, visual rating on 0 to 100 scale (0 no effect, 100 complete control)
Outline: (§1)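 Visual 0–100 ratings (100 = complete control) made about 10 days after treatment, greenhouse-held plants compared with untreated controls. Treatments: postemergence sprays on one- to two-leaf plants (2–10 cm tall) and preemergence directed soil sprays after planting in loam–sand, chemicals formulated in non-phytotoxic solvent containing surfactant.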

[2] = system: barnyardgrass; experiment: Test C flooded paddy test; format: in vivo, Echinochloa crus-galli; details: Flood
Outline: (§2)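 Plants at the 2-leaf stage in pots flooded to 3 cm were treated by applying compound directly to the paddy water, with depth held throughout. After 13 to 15 days in a greenhouse, response was rated visually against controls on a 0 (no effect) to 100 (complete control) scale.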

[3] = system: wheat; experiment: Test A pre-/postemergence herbicide test; format: in vivo, Triticum aestivum; details: for Wheat plant response rating: Preemergence, visual rating on 0 to 100 scale (0 no effect, 100 complete control)
Outline: as §1

[4] = system: corn; experiment: Test A pre-/postemergence herbicide test; format: in vivo, Zea mays; details: for Corn plant response rating: Preemergence, visual rating on 0 to 100 scale (0 no effect, 100 complete control)
Outline: as §1

[5] = system: sedge, umbrella; experiment: Test C flooded paddy test; format: in vivo, Cyperus difformis; details: Flood
Outline: as §2

[6] = system: rice; experiment: Test C flooded paddy test; format: in vivo, Oryza sativa; details: Flood
Outline: as §2

[7] = system: pigweed; experiment: Test A pre-/postemergence herbicide test; format: in vivo, Amaranthus retroflexus; details: for Pigweed plant response rating: Preemergence, visual rating on 0 to 100 scale (0 no effect, 100 complete control)
Outline: as §1

[8] = system: crabgrass, large; experiment: Test A pre-/postemergence herbicide test; format: in vivo, Digitaria sanguinalis; details: for Crabgrass, Large plant response rating: Preemergence, visual rating on 0 to 100 scale (0 no effect, 100 complete control)
Outline: as §1

[9] = system: velvetleaf; experiment: Test A pre-/postemergence herbicide test; format: in vivo, Abutilon theophrasti; details: for Velvetleaf plant response rating: Preemergence, visual rating on 0 to 100 scale (0 no effect, 100 complete control)
Outline: as §1

[10] = system: morningglory; experiment: Test A pre-/postemergence herbicide test; format: in vivo, Ipomoea spp.; details: for Morningglory plant response rating: Preemergence, visual rating on 0 to 100 scale (0 no effect, 100 complete control)
Outline: as §1

[11] = system: barnyardgrass; experiment: Test A pre-/postemergence herbicide test; format: in vivo, Echinochloa crus-galli; details: for Barnyardgrass plant response rating: Preemergence, visual rating on 0 to 100 scale (0 no effect, 100 complete control)
Outline: as §1

[12] = system: ducksalad; experiment: Test C flooded paddy test; format: in vivo, Heteranthera limosa; details: Flood
Outline: as §2

[13] = Postemergence, 125 g ai/ha, 0 to 100 scale, 0 no effect, 100 complete control
[14] = Postemergence, 500 g ai/ha, 0 to 100 scale (0 no effect, 100 complete control)
[15] = preemergence, 500 g ai/ha, 0 to 100 scale
[16] = 31 g ai/ha, scale of 0 to 100 where 0 is no effect and 100 is complete control, 13 to 15 days
[17] = 62 g ai/ha, scale of 0 to 100 where 0 is no effect and 100 is complete control, 13 to 15 days
[18] = 125 g ai/ha, scale of 0 to 100 where 0 is no effect and 100 is complete control, 13 to 15 days
[19] = preemergence, 500 g ai/ha, 0 to 100 scale (0 no effect, 100 complete control)

O=C1NCC(c2cccc(F)c2)C1C(=O)Nc1ccccc1F (racemic) [Compound 1]
70: Foxtail, Giant plant response rating ([1]; 125 g ai/ha)
60: Plant response rating, Foxtail, Giant [1, 14]
20: Plant response rating, Foxtail, Giant [1, 13] | Plant response rating, Corn [4, 15]
30: Plant response rating, Crabgrass, Large [8, 13] | Barnyardgrass plant response rating ([11]; 125 g ai/ha)
90: Plant response rating, Foxtail, Giant [1, 15] | Crabgrass, Large plant response rating ([8]; 125 g ai/ha) | Plant response rating, Crabgrass, Large [8, 15] | Plant response rating, Barnyardgrass [11, 19]
0: Plant response rating, Barnyardgrass [2, 16] | Plant response rating, Barnyardgrass [2, 17] | Plant response rating, Barnyardgrass [2, 18] | Plant response rating, Barnyardgrass ([2]; 250 g ai/ha, scale 0 to 100) | Plant response rating, Wheat [3, 14] | Wheat plant response rating ([3]; 125 g ai/ha) | Plant response rating, Wheat [3, 15] | Plant response rating, Corn [4, 13] | Plant response rating, Corn [4, 14] | Corn plant response rating ([4]; 125 g ai/ha) | Plant response rating, Sedge, Umbrella [5, 16] | Plant response rating, Sedge, Umbrella [5, 17] | Plant response rating, Sedge, Umbrella [5, 18] | Plant response rating, Sedge, Umbrella ([5]; 250 g ai/ha, scale 0 to 100) | Plant response rating, Rice [6, 16] | Plant response rating, Rice [6, 17] | Plant response rating, Rice [6, 18] | Plant response rating, Rice ([6]; 250 g ai/ha, scale 0 to 100) | Plant response rating, Pigweed [7, 14] | Pigweed plant response rating ([7]; 125 g ai/ha) | Plant response rating, Pigweed [7, 15] | Plant response rating, Velvetleaf [9, 14] | Velvetleaf plant response rating ([9]; 125 g ai/ha) | Plant response rating, Velvetleaf [9, 15] | Plant response rating, Morningglory [10, 14] | Morningglory plant response rating ([10]; 125 g ai/ha) | Plant response rating, Morningglory [10, 15] | Plant response rating, Ducksalad [12, 16] | Plant response rating, Ducksalad [12, 17] | Plant response rating, Ducksalad [12, 18] | Plant response rating, Ducksalad ([12]; 250 g ai/ha, scale 0 to 100)
50: Plant response rating, Barnyardgrass [11, 13]
80: Plant response rating, Crabgrass, Large [8, 14] | Plant response rating, Barnyardgrass [11, 14]

O=C1NCC(c2ccc(F)c(F)c2)C1C(=O)Nc1cccc(F)c1F (racemic) [Compound 107]
80: Plant response rating, Foxtail, Giant [1, 15] | Crabgrass, Large plant response rating ([8]; 125 g ai/ha) | Plant response rating, Barnyardgrass [11, 14]
60: Plant response rating, Crabgrass, Large [8, 13] | Plant response rating, Ducksalad ([12]; 500 g ai/ha, scale 0 to 100)
10: Plant response rating, Foxtail, Giant [1, 13]
40: Plant response rating, Morningglory [10, 14]
50: Plant response rating, Barnyardgrass [11, 13]
30: Plant response rating, Pigweed [7, 14] | Plant response rating, Ducksalad ([12]; 250 g ai/ha, scale 0 to 100)
70: Plant response rating, Foxtail, Giant [1, 14] | Foxtail, Giant plant response rating ([1]; 125 g ai/ha) | Plant response rating, Crabgrass, Large [8, 14] | Plant response rating, Barnyardgrass [11, 19] | Plant response rating, Ducksalad ([12]; 1000 g ai/ha, scale 0 to 100)
20: Plant response rating, Barnyardgrass ([2]; 1000 g ai/ha, scale 0 to 100) | Plant response rating, Pigweed [7, 15] | Plant response rating, Velvetleaf [9, 14] | Barnyardgrass plant response rating ([11]; 125 g ai/ha)
90: Plant response rating, Crabgrass, Large [8, 15]
0: Plant response rating, Barnyardgrass [2, 18] | Plant response rating, Barnyardgrass ([2]; 250 g ai/ha, scale 0 to 100) | Plant response rating, Barnyardgrass ([2]; 500 g ai/ha, scale 0 to 100) | Plant response rating, Wheat [3, 13] | Plant response rating, Wheat [3, 14] | Wheat plant response rating ([3]; 125 g ai/ha) | Plant response rating, Wheat [3, 15] | Plant response rating, Corn [4, 13] | Plant response rating, Corn [4, 14] | Corn plant response rating ([4]; 125 g ai/ha) | Plant response rating, Corn [4, 15] | Plant response rating, Sedge, Umbrella [5, 18] | Plant response rating, Sedge, Umbrella ([5]; 250 g ai/ha, scale 0 to 100) | Plant response rating, Sedge, Umbrella ([5]; 500 g ai/ha, scale 0 to 100) | Plant response rating, Sedge, Umbrella ([5]; 1000 g ai/ha, scale 0 to 100) | Plant response rating, Rice [6, 18] | Plant response rating, Rice ([6]; 250 g ai/ha, scale 0 to 100) | Plant response rating, Rice ([6]; 500 g ai/ha, scale 0 to 100) | Plant response rating, Rice ([6]; 1000 g ai/ha, scale 0 to 100) | Plant response rating, Pigweed [7, 13] | Pigweed plant response rating ([7]; 125 g ai/ha) | Plant response rating, Velvetleaf [9, 13] | Velvetleaf plant response rating ([9]; 125 g ai/ha) | Plant response rating, Velvetleaf [9, 15] | Plant response rating, Morningglory [10, 13] | Morningglory plant response rating ([10]; 125 g ai/ha) | Plant response rating, Morningglory [10, 15] | Plant response rating, Ducksalad [12, 18]

CC1NC(=O)C(C(=O)Nc2ccccc2F)C1c1ccc(F)c(F)c1 (mixture of isomers) [Compound 8]
70: Plant response rating, Crabgrass, Large [8, 14]
0: Plant response rating, Foxtail, Giant [1, 13] | Plant response rating, Barnyardgrass [2, 16] | Plant response rating, Barnyardgrass [2, 17] | Plant response rating, Barnyardgrass [2, 18] | Plant response rating, Barnyardgrass ([2]; 250 g ai/ha, scale 0 to 100) | Plant response rating, Wheat [3, 13] | Plant response rating, Wheat [3, 14] | Wheat plant response rating ([3]; 125 g ai/ha) | Plant response rating, Wheat [3, 15] | Plant response rating, Corn [4, 13] | Plant response rating, Corn [4, 14] | Corn plant response rating ([4]; 125 g ai/ha) | Plant response rating, Sedge, Umbrella [5, 16] | Plant response rating, Sedge, Umbrella [5, 17] | Plant response rating, Sedge, Umbrella [5, 18] | Plant response rating, Sedge, Umbrella ([5]; 250 g ai/ha, scale 0 to 100) | Plant response rating, Rice [6, 16] | Plant response rating, Rice [6, 17] | Plant response rating, Rice [6, 18] | Plant response rating, Rice ([6]; 250 g ai/ha, scale 0 to 100) | Plant response rating, Pigweed [7, 13] | Plant response rating, Pigweed [7, 14] | Pigweed plant response rating ([7]; 125 g ai/ha) | Plant response rating, Pigweed [7, 15] | Plant response rating, Velvetleaf [9, 13] | Plant response rating, Velvetleaf [9, 14] | Velvetleaf plant response rating ([9]; 125 g ai/ha) | Plant response rating, Velvetleaf [9, 15] | Plant response rating, Morningglory [10, 13] | Plant response rating, Morningglory [10, 14] | Morningglory plant response rating ([10]; 125 g ai/ha) | Plant response rating, Morningglory [10, 15] | Plant response rating, Ducksalad [12, 16] | Plant response rating, Ducksalad [12, 17] | Plant response rating, Ducksalad [12, 18] | Plant response rating, Ducksalad ([12]; 250 g ai/ha, scale 0 to 100)
20: Plant response rating, Corn [4, 15] | Plant response rating, Barnyardgrass [11, 13] | Barnyardgrass plant response rating ([11]; 125 g ai/ha)
60: Foxtail, Giant plant response rating ([1]; 125 g ai/ha) | Plant response rating, Crabgrass, Large [8, 13] | Plant response rating, Barnyardgrass [11, 14] | Plant response rating, Barnyardgrass [11, 19]
90: Plant response rating, Foxtail, Giant [1, 15] | Plant response rating, Crabgrass, Large [8, 15]
50: Plant response rating, Foxtail, Giant [1, 14]
80: Crabgrass, Large plant response rating ([8]; 125 g ai/ha)
